In patent publication US20040091937A1, “Use of fluorine NMR for high throughput screening” (priority 2002, published 2004):
Where “and” joins values, the source holds several entries; their conditions need not be identical. Equal values may be shown once. Where a name gives a salt, the structure may show the parent alone.

How the values were obtained:
human serum albumin [1] = target: T1, human serum albumin (Homo sapiens, UniProt P02768); experiment: 19F NMR spin-echo competition binding screening against HSA with spy molecule (3) and control molecule (2)
Procedure: (§1) D2O was added to the solution (8% final concentration) for the lock signal.
A dual coil {^19F}-{^1H} probe was used with the inner coil tuned to ^19F and the outer coil tuned to ^1H frequency. […] These signals are broad and therefore are not visible in the spectra of the reference and control molecule recorded with a spin-echo scheme. All the spectra were recorded with a weak Waltz-16 proton decoupling applied during the acquisition period. Typically 4-8 dummy scans were recorded for temperature equilibration. Carr-Purcell-Meibom-Gill schemes of different length and long 2τ interval were used before the acquisition period. Chemical shifts were referenced to trifluoroacetic acid.
These techniques also provide the number of binding sites (n) for the reference molecule a parameter that is very important for the competition binding experiments.
For screening, a total spin-echo period (2nτ) was selected for which the signal of the reference molecule is approaching zero.

human serum albumin [2] = target: T1, human serum albumin; experiment: Isothermal titration calorimetry with HSA; assay type: binding; parameters: purchased Sigma A-3782
Procedure: Isothermal titration calorimetry experiments were performed using an OMEGA titrating microcalorimeter from Microcal, Inc. (Northampton, Mass.). The titrating microcalorimeter consisted of a sample and reference cell held in an adiabatic enclosure. The reference cell was filled with PBS. […] Analyte at 0.8 mM in the same buffer was held in a 250 μL syringe. Thirty injections (8 μL each and 12 seconds/injection) of analyte were made by a computer controlled stepper motor into the sample cell held at 25° C. The syringe stir rate was 400 rpm. Heat adsorbed or released with each injection was measured by a thermoelectric device connected to a Microcal nanovolt preamplifier. Titration isotherms for the binding interactions were comprised of the differential heat flow for each injection. Heat of dilution obtained by injecting analyte into PBS was negligible. Binding isotherms were fit to a single binding site model (T. Wiseman et al., Anal. Biochem., 179, 131-137 (1989)) using an iterative nonlinear least-squares algorithm included with the instrument.

PAK4 = target: T2, PAK4 (Homo sapiens, UniProt O96013); experiment: 19F NMR binding and competition binding screening and deconvolution against p21-activated kinase; conditions: 15 μM TFA, 1.5 μM protein
T2 construct: GST (cleaved yes); made in house; host or cells: E. coli
T2 sequence (O96013 321-572 limits assumed, species assumed): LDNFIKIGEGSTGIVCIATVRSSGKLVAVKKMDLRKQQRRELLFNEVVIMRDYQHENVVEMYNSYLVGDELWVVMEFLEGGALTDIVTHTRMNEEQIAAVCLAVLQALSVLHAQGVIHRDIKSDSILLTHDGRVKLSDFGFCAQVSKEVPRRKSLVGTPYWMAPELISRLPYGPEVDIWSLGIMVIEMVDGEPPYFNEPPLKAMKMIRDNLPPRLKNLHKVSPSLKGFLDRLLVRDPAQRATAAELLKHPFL
Procedure: as §1
The signal of the non-interacting molecule represents an internal reference that can be used for calibrating with a single experiment the changes in the signal of the spy molecule. […] It should be noted that some compounds in the screening may contain traces of TFA.

T1 sequence (P02768 25-609): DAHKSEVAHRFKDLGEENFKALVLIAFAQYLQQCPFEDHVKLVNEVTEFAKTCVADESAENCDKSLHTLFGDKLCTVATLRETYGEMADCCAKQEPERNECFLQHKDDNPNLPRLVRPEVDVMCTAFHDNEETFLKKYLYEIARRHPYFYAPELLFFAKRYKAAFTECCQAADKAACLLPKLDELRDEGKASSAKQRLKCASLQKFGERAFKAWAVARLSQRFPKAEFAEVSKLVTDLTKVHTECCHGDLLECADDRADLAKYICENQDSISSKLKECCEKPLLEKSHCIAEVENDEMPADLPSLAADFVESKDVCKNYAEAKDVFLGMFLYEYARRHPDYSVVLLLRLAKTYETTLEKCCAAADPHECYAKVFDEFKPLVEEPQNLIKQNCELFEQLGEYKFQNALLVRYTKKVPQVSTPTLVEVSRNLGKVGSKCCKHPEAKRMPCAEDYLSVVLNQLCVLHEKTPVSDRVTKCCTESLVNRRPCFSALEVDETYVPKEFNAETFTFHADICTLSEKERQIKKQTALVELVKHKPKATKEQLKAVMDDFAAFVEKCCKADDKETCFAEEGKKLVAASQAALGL

Cc1ccc2[nH]cc(CC(N)C(=O)O)c2c1 (centres unmarked) [5-CH3 D,L Trp]
effect on the 19F signal of the spy molecule (3) (displacement from HSA) (human serum albumin [1]; 600 nM HSA, 50 μM (3), 25 μM (2), 50 μM 5-CH3 D,L Trp and sucrose, 25 μM (4)): do not alter the spectrum of the spy molecule

FC(F)(F)c1nnc(N2CCNCC2)s1 [(2), 1-[5-(trifluoromethyl)1,3,4-thiadiazol-2-yl]piperazine]
evidence of binding to HSA by ITC (human serum albumin [2]; 8 μL injections of 800 μM into 30 μM HSA): did not find any evidence of binding to HSA

O=C(O)c1cccc(F)c1O [(3), 2-hydroxy 3-fluorobenzoic acid]
Kd (human serum albumin [1]; KD^app, apparent KD of (3), 50 μM, with 25 μM (4) and 0.6 μM HSA): 327 µM and 300 µM | Kd (human serum albumin [2]; HSA in PBS + 2% DMSO, 25° C., single binding site model, read-out: ITC derived KD): 41 ± 3.3 µM

O=C(O)C(F)(F)F [trifluoroacetic acid (TFA), trifluoroacetic acid]
interaction with the protein (19F spectra in absence and presence of protein) (PAK4): non-interacting
